From patent publication US10485769B2, “Cholesteryl ester transfer protein (CETP) inhibition in the treatment of cancer” (KING ABDULLAH UNIVERSITY OF SCIENCE AND TECHNOLOGY, priority 2015, dated 2019)

Key:
MCF-7 cells [1] = assay: APOPercentage assay, apoptosis in MCF-7 cells; assay type: cell-based, human; conditions: 10 μM
Procedure: FIG. 5: Cholesterol depletion by PL and AP. BJ, BT20 and MCF-7 cells were treated with 10 μM PL or AP for 2 h and cholesterol levels were determined with the Amplex Red Cholesterol kit as per manufacturer's instructions. Cells treated with 5 mg/ml MBCD was used as a positive control and fluorescence was measured with a Tecan plate reader. MCF-7 cells were pre-incubated with 1 mM cholesterol for 1 h followed by treatment with 10 μM PL or AP for 2 h (A). Apoptosis was determined by flow cytometry with the APOPercentage kit or Cells treated with MBCD and 5 mM H2O2 served as positive controls (B). Values represent the means±SD of three independent experiments.
Next we asked if addition of cholesterol can rescue MCF-7 cells from undergoing apoptosis when treated with PL or AP.

MCF-7 cells [2] = assay: Mitochondrial Outer Membrane Potential (MOMP) by flow cytometry; assay type: cell-based, human; conditions: 10 μM PL, AP; 100 mM H2O2 positive control; versus untreated cells
Procedure: FIG. 2: Mode of induction in MCF-7 cells after treatment with AP and PL was determined by measuring changes in MOMP and levels of apoptosis-associated proteins. The cells were incubated with 10 μM AP and PL for different time intervals to capture the timeline of apoptosis induction in MCF-7 cells. The changes in MOMP were measured using flow cytometry after treating MCF-7 cells with PL and AP for 1, 2 and 4 h (A). The alteration in expression of several apoptosis-associated proteins were determined using western blotting after incubating MCF-7 cells for 1, 2, 4, 6 h with PL (C, E) and AP (D. F).
The changes in Mitochondrial Outer Membrane Potential (MOMP) and proteins involved in the apoptotic cascade were assessed (FIG. 2).

MCF-7 cells [3] = assay: MTT assay, viability of MCF-7 cells; conditions: for effect on cell viability: 1 and 2.5 μM, 24 h
Procedure: FIG. 1: MTT and APOPercentage assays to assess the differential cytotoxicity and apoptosis inducing potential of AP and PL in MCF-7 cells. Viability was determined using MTT assay after incubating the MCF-7 cells with different concentrations of AP and PL (A), at different time-points (B). The apoptosis inducing potential of 10 μM AP and PL in MCF-7 was determined by using APOPercentage assay performed at intervals of 2 and 6 h.
The activities of a compound described herein can be evaluated by methods known in the art, e.g., MTT (3-[4,5-dimethylthiazol-2-yl]-2,5-diphenyltetrazolium bromide) assay, APOPercentage, clonogenic assay, ATP assay, or Extreme Drug Resistance (EDR) assay. See Freuhauf, J. P. and Manetta, A., Chemosensitivity Testing in Gynecologic Malignancies and Breast Cancer 19, 39-52 (1994), which is incorporated by reference in its entirety. The results are then plotted to generate drug response curves, which allow IC50 values (the concentration of a compound required to inhibit 50% of the population of the treated cells) to be determined. […] In general, however, a dose can be in the range of from about 0.01 to about 10 mg/kg of body weight per day.
As a first step, MCF-7 cells were treated with 1, 2.5, 5 and 10 μM PL or AP for 24 h and percentage viability was determined after 24 h using the MTT assay. […] Next the effect of 10 μM PL drug on cell viability over time was determined. […] The percentage of cells undergoing apoptosis at the early time points i.e. 2 and 6 h was determined by the APOPercentage assay. APOPercentage dye binds to extracellularly exposed phosphatidylserine (PS) on the plasma membrane of apoptotic cells.

CETP = CETP protein in mice serum, western blotting and densitometry; assay type: in vivo; conditions: 2 mg/kg PL, 5 mg/kg AP, compared to Vehicle
Procedure: FIG. 7: Levels of CETP mRNA in tumor (A) and protein in serum (B) in mice tumor samples after treatment with 2 mg/kg PL or 5 mg/kg AP were determined with the RT-PCR and western blotting, respectively. Fold change in expression of serum protein was determined using densitometry analysis of western blots using ImageJ (C). CETP activity in serum was estimated using CETP activity kit (name of kit/manufacturer) (D). Values represent the means±SD of three independent experiments. * where p≤0.05, and ** where p≤0.005.
We performed qRT-PCR using mRNA isolated from mice tumor samples to determine the expression of CETP after treatment with PL and AP (FIG. 7A). […] CETP mRNA is translated into 74 kD protein comprised of 476 amino acids that localizes in plasma. […] CETP protein levels in mice serum samples were determined by western blotting (FIG. 7B).

BJ CETP siRNA cells = assay: Cholesterol levels in BJ CETP siRNA cells; assay type: cell-based, human; conditions: treated with PL or AP or left untreated
MCF-7 tumors = assay: Efficacy in MCF-7 xenograft nude mouse model of BC; assay type: in vivo, nude mice; conditions: 21 days
Procedure: FIG. 3: Comparative efficacy and toxicity study in MCF-7 xenograft nude mouse model of BC. The efficacy of single i.p. injection of vehicle, PL (2 mg/kg) and AP (5 mg/kg) in 5 mice in each group was compared over a period of 21 days.
MCF-7 tumors grown up to 300 mm3 in four nude mice were harvested, dissected into 1-2 mm3 fragments and implanted into the study group for further testing. Nude mice (with tumor volume of 150 mm3) were treated with 25% Polyethylene glycol (PEG) 400 as vehicle, 2 mg/kg PL and 5 mg/kg AP for 21 days during which tumor volume, body weight and, at the time of sacrifice, tumor weight was measured.

[4] = tested on: apoptosis-associated proteins in MCF-7 cells; assay: Western blotting of apoptosis-associated proteins; assay type: cell-based, human; conditions: 10 μM; for PARP-1 cleavage: 12 and 24 h time points; for expression of DNA damage marker pH2AX: as early as 2 h, remained elevated
Procedure: FIG. 2: Mode of induction in MCF-7 cells after treatment with AP and PL was determined by measuring changes in MOMP and levels of apoptosis-associated proteins. The cells were incubated with 10 μM AP and PL for different time intervals to capture the timeline of apoptosis induction in MCF-7 cells. The changes in MOMP were measured using flow cytometry after treating MCF-7 cells with PL and AP for 1, 2 and 4 h (A). […] F).
Intrinsic apoptosis is activated by the mitochondria where MOMP is reduced and the imbalance between pro- and anti-apoptotic factors results in activation of caspases 9, 3 and 7, cleavage of caspase substrate like PARP-1 (Poly [ADP-ribose] polymerase 1) and fragmentation of DNA. After treatment with 10 μM PL and AP alterations in the ratio of Bax and Bcl2 were observed and pro-caspase 9 levels were reduced (FIGS. 2B and C).

[5] = 2 h, after pre-incubation with 1 mM cholesterol for 1 h
[6] = 2 h, without addition of cholesterol

| Compound | level of apoptosis (MCF-7 cells [1]; 2 h) | apoptosis (MCF-7 cells [1]; [5]) | apoptosis (MCF-7 cells [1]; [6]) | level of apoptosis (MCF-7 cells [1]; 6 h) | MOMP, fluorescence in the FL-2 channel (MCF-7 cells [2]) | cell viability reduced to (MCF-7 cells [3]; 10 μM, as early as 6 h) | effect on cell viability (MCF-7 cells [3]) | CETP protein levels in serum (CETP) | cholesterol levels (BJ CETP siRNA cells) | reduction of tumor volume (MCF-7 tumors; 2 mg/kg PL, 5 mg/kg AP) | inhibition of tumor growth (MCF-7 tumors; 5 mg/kg AP) | pro-caspase 9 levels [4] | ratio of Bax and Bcl2 [4] | reduction of pro-caspase 7, time observed [4] | PARP-1 cleavage [4] | expression of DNA damage marker pH2AX [4] | viability at 10 µM (MCF-7 cells [3]; Homo sapiens, MCF7, 6 h, read-out: cell viability reduced to) | tumor weight in comparison to vehicle (MCF-7 tumors; 2 mg/kg PL) |
| --- | --- | --- | --- | --- | --- | --- | --- | --- | --- | --- | --- | --- | --- | --- | --- | --- | --- | --- |
| CC(=O)Oc1cccc2c1C(=O)C=C(C)C2=O [AP, Acetyl Plumbagin] | ~20% | negligible | 20% | ~45% | lower fluorescent values | 50% | no significant effect | upregulated | No significant changes | 37% | 45% | reduced | alterations | reduced at 12 h | substantially reduced from full length to the cleaved fragment | significantly increased | – | – |
| CC1=CC(=O)c2c(O)cccc2C1=O [PL, 5-hydroxy-2-methyl-1,4-naphthoquinone, reference compound] | ~20% | 10% | 30% | ~45% | lower fluorescent values | – | no significant effect | slightly reduced | No significant changes | approximately 17% | – | reduced | alterations | as early as 2 and 6 h | substantially reduced from full length to the cleaved fragment | significantly increased | 50% | no difference |
